Assay results as given in patent US11760755B2, “Hepatitis B antiviral agents” (priority 2019, dated 2023).
Where two headings read alike, the source gives them in different places.

Assays:
[1] = test system: HBV; assay: HepAD38 antiviral assay: reduction of viral product accumulation (virion DNA by qPCR, HBsAg/HBeAg by ELISA); type: cell-based, hepatitis B virus
Protocol: Methods: HepAD38 cells are maintained as previously reported (Ladner et al, Antimicrob. Agents Chemother. 1997, […], 1715). Briefly, cells are passaged upon attaining confluency in DMEM/F12 media in the presence of 10% FBS, Penn/Strep, 250 μg/mL G418, and 1 μg/ml tetracycline. Novel compounds are screened by first washing cells three times with PBS to remove tetracycline, and plating in 96 well plates at 35,000 cells/well. Compounds dissolved in DMSO are then diluted 1:200 into wells containing cells. Five days after compound addition, material is harvested for analysis. For an extended 8 day analysis, cells are plated and treated as described above, but media and compound are refreshed on d2 and d5 post initial treatment.
On harvest day, virion DNA is obtained by lysing with Sidestep Lysis and Stabilization Buffer and then quantified via quantitative real time PCR. Commercially available ELISA kits are used to quantitate the viral proteins HBsAg (Alpco) or HbeAg (US Biological) by following the manufacturer's recommended protocol after diluting samples to match the linear range of their respective assays. Irrespective of readout, compound concentrations that reduce viral product accumulation in the cell lysates or supernatants by 50% relative to no drug controls (EC50) are reported; EC50 ranges are as follows: A<0.1 μM; B 0.1-1 μM; C>1 μM.

[2] = test system: HepG2; assay: Compound toxicity, ATPLite total ATP levels; type: cell-based; details: human, 3 days
Protocol: (§1) Compound toxicity is evaluated by seeding cells at 15,000 cells/well and treating with compound as described above.

[3] = Compound toxicity, ATPLite total ATP levels; type: cell-based; details: human
Protocol: as §1

[4] = Hepatitis B virus, HePAD38, read-out: HepAD38 EC50 (μM)
[5] = Hepatitis B virus, HepAD38 cells, 50% reduction of viral product accumulation relative to no drug controls, class symbols, read-out: HepAD38 EC50
[6] = HepG2 cells, HepG2, three days after compound addition, 50% reduction of total ATP levels (ATPLite), read-out: HepG2 CC50
[7] = Hepatitis B virus, HepAD38 cells, 50% reduction of viral product accumulation relative to no drug controls, numeric bound, read-out: HepAD38 EC50
[8] = read-out: HepAD38 EC50, HepAD38 cells, 50% reduction of viral product accumulation relative to no drug controls, class symbols

Structure (SMILES)	EC50 [1, 4]	EC50 [1, 5]	other results
O=C(N[C@H]1CC2=C(c3ccn(C(F)F)n3)[C@H](c3ccc(F)cc3Cl)N=C(c3nccs3)N2C1)N1[C@@H]2CC[C@H]1C[C@H](O)C2 [Example 8]	0.1 to 1 µM	–	–
O=S(=O)(N[C@H]1CC2=C(c3ccn(C(F)F)n3)[C@H](c3ccc(F)cc3Cl)N=C(c3nccs3)N2C1)N1C2CCC1CC(O)C2 (single isomer, unassigned) [Example 1]	< 0.1 µM	–	CC50 [2]: 10000 to 25000 nM
O=S(=O)(N[C@H]1CC2=C(c3ccn(C(F)F)n3)[C@H](c3ccc(F)cc3Cl)N=C(c3nccs3)N2C1)N1C2CCC1CC(F)(F)C2 [Example 10]	< 0.1 µM	–	–
O=S(=O)(N[C@H]1CC2=C(c3ccn(C(F)F)n3)[C@H](c3ccc(F)cc3Cl)N=C(c3nccs3)N2C1)[C@H]1CC2CCC(C1)[C@]2(O)CO [Example 27]	–	< 0.1 µM	CC50 at 3 days [3, 6]: > 25 µM
O=S(=O)(N[C@H]1CC2=C(c3ccn(C(F)F)n3)[C@H](c3ccc(F)cc3Cl)N=C(c3nccs3)N2C1)[C@H]1C2CC[C@H]1C[C@@](O)(c1ccccn1)C2 [Example 34]	–	< 0.1 µM	–
O=S(=O)(N[C@H]1CC2=C(c3ccn(C(F)F)n3)[C@H](c3ccc(F)cc3Cl)N=C(c3nccs3)N2C1)N1CC2CCC(C1)C2(O)c1ccccn1 (stereo partly shown) [Example 14]	–	< 0.1 µM	–
C#CC1(O)CC2CCC(C1)N2S(=O)(=O)N[C@H]1CC2=C(c3ccn(C(F)F)n3)[C@H](c3ccc(F)cc3Cl)N=C(c3nccs3)N2C1 (stereo partly shown) [Example 22]	< 0.1 µM	–	–
O=C(N[C@H]1CC2=C(c3ccn(C(F)F)n3)[C@H](c3ccc(F)cc3Cl)N=C(c3nccs3)N2C1)N1C[C@H]2CC[C@@H](C1)[C@H]2O [Example 7]	–	0.1 to 1 µM	–
C[C@]1(O)C2CCC1C[C@@H](S(=O)(=O)N[C@H]1CC3=C(c4ccn(C(F)F)n4)[C@H](c4ccc(F)cc4Cl)N=C(c4nccs4)N3C1)C2 [Example 25]	–	< 0.1 µM	–
O=S(=O)(N[C@H]1CC2=C(c3ccn(C(F)F)n3)[C@H](c3ccc(F)cc3Cl)N=C(c3nccs3)N2C1)[C@H]1C2CC[C@H]1C[C@@](O)(CO)C2 [Example 35]	–	< 0.1 µM	CC50 at 3 days [3, 6]: > 25 µM
O=C(N[C@H]1CC2=C(c3ccn(C(F)F)n3)[C@H](c3ccc(F)cc3Cl)N=C(c3nccs3)N2C1)N1[C@@H]2CC[C@H]1C[C@@H](O)C2 [Example 5]	–	–	EC50 [1, 7]: > 0.4 µM
O=C1NCC2(CC3CCC(C2)N3S(=O)(=O)N[C@H]2CC3=C(c4ccn(C(F)F)n4)[C@H](c4ccc(F)cc4Cl)N=C(c4nccs4)N3C2)O1 (stereo partly shown) [Example 21]	< 0.1 µM	–	CC50 at 3 days ([3]; HepG2 CC50 (μM)): > 25 µM
O=S(=O)(N[C@H]1CC2=C(c3ccn(C(F)F)n3)[C@H](c3ccc(F)cc3Cl)N=C(c3nccs3)N2C1)[C@H]1CC2CCC(C1)[C@H]2O [Example 17]	–	< 0.1 µM	CC50 at 3 days [3, 6]: 10 to 25 µM
CC(C)(C)OC(=O)N1C2CCC1CC(NS(=O)(=O)N[C@H]1CC3=C(c4ccn(C(F)F)n4)[C@H](c4ccc(F)cc4Cl)N=C(c4nccs4)N3C1)C2 (stereo partly shown) [Example 11]	0.1 to 1 µM	–	–
O=C1CC2CC[C@@H](C1)[C@H]2S(=O)(=O)N[C@H]1CC2=C(c3ccn(C(F)F)n3)[C@H](c3ccc(F)cc3Cl)N=C(c3nccs3)N2C1 [Example 33]	–	< 0.1 µM	CC50 at 3 days [3, 6]: > 25 µM
O=S(=O)(NC1CC2CCC(C1)C2O)N[C@H]1CC2=C(c3ccn(C(F)F)n3)[C@H](c3ccc(F)cc3Cl)N=C(c3nccs3)N2C1 (stereo partly shown) [Example 12]	–	0.1 to 1 µM	–
O=C(N[C@H]1CC2=C(c3ccn(C(F)F)n3)[C@H](c3ccc(F)cc3Cl)N=C(c3nccs3)N2C1)N1CC2CCC(C1)O2 [Example 4]	–	–	EC50 [1, 7]: > 0.4 µM
O=S(=O)(N[C@H]1CC2=C(c3ccn(C(F)F)n3)[C@H](c3ccc(F)cc3Cl)N=C(c3nccs3)N2C1)N1C2CCC1CC(O)(c1nccs1)C2 (stereo partly shown) [Example 20]	< 0.1 µM	–	–

Structure (SMILES)	EC50 [1, 4]	EC50 [1, 5]	other results
O=S(=O)(N[C@H]1CC2=C(c3ccn(C(F)F)n3)[C@H](c3ccc(F)cc3Cl)N=C(c3nccs3)N2C1)N1C2CCC1CC(O)(Cn1ccnc1)C2 (stereo partly shown) [Example 30]	< 0.1 µM	–	–
CN([C@H]1CC2=C(c3ccn(C(F)F)n3)[C@H](c3ccc(F)cc3Cl)N=C(c3nccs3)N2C1)S(=O)(=O)N1C2CC[C@H]1C[C@@](O)(c1nccs1)C2 [Example 36]	< 0.1 µM	–	CC50 at 3 days ([3]; HepG2 CC50 (μM)): > 25 µM
O=C1C2CCC1CC(S(=O)(=O)N[C@H]1CC3=C(c4ccn(C(F)F)n4)[C@H](c4ccc(F)cc4Cl)N=C(c4nccs4)N3C1)C2 (stereo partly shown) [Example 16]	–	0.1 to 1 µM	–
C#C[C@]1(O)C2CCC1C[C@@H](S(=O)(=O)N[C@H]1CC3=C(c4ccn(C(F)F)n4)[C@H](c4ccc(F)cc4Cl)N=C(c4nccs4)N3C1)C2 [Example 26]	–	< 0.1 µM	–
O=S(=O)(N[C@H]1CC2=C(c3ccn(C(F)F)n3)[C@H](c3ccc(F)cc3Cl)N=C(c3nccs3)N2C1)[C@H]1CC2CCC(C1)[C@]2(O)c1ccccn1 [Example 18]	–	< 0.1 µM	CC50 at 3 days [3, 6]: 10 to 25 µM
O=S(=O)(N[C@H]1CC2=C(c3ccn(C(F)F)n3)[C@H](c3ccc(F)cc3Cl)N=C(c3nccs3)N2C1)N1C2CCC1CC(O)(c1ccccn1)C2 (stereo partly shown) [Example 19]	< 0.1 µM	–	–
O=S(=O)(C[C@H]1CC2=C(c3ccn(C(F)F)n3)[C@H](c3ccc(F)cc3Cl)N=C(c3nccs3)N2C1)N1C2CC[C@H]1C[C@@](O)(c1ccccn1)C2 [Example 38]	0.1 to 1 µM	–	–
O=S(=O)(N[C@H]1CC2=C(c3ccn(C(F)F)n3)[C@H](c3ccc(F)cc3Cl)N=C(c3nccs3)N2C1)N1C2CCC1CC(O)C2 (single isomer, unassigned) [Example 3]	–	–	EC50 [1, 8]: < 0.1 µM; CC50 [2]: > 25000 nM
O=S(=O)(N[C@H]1CC2=C(c3ccn(C(F)F)n3)[C@H](c3ccc(F)cc3Cl)N=C(c3nccs3)N2C1)N1C2CCC1CC(O)(c1cn(-c3ccccn3)nn1)C2 (stereo partly shown) [Example 24]	< 0.1 µM	–	CC50 at 3 days ([3]; HepG2 CC50 (μM)): > 25 µM
O=S(=O)(N[C@H]1CC2=C(c3ccn(C(F)F)n3)[C@H](c3ccc(F)cc3Cl)N=C(c3nccs3)N2C1)N1CC2CCC(C1)O2 [Example 2]	–	< 0.1 µM	–
O=S(=O)(N[C@H]1CC2=C(c3ccn(C(F)F)n3)[C@H](c3ccc(F)cc3Cl)N=C(c3nccs3)N2C1)[C@@H]1CC2CC[C@@H](C1)[C@@]2(O)c1cn(-c2ccccn2)nn1 [Example 28]	–	< 0.1 µM	–
O=C1CC2CCC(C1)N2S(=O)(=O)N[C@H]1CC2=C(c3ccn(C(F)F)n3)[C@H](c3ccc(F)cc3Cl)N=C(c3nccs3)N2C1 [Example 9]	< 0.1 µM	–	CC50 at 3 days ([3]; HepG2 CC50 (μM)): > 25 µM
O=S(=O)(N[C@H]1CC2=C(c3ccn(C(F)F)n3)[C@H](c3ccc(F)cc3Cl)N=C(c3nccs3)N2C1)N1C2CC[C@H]1C=C(c1cn(-c3ccccn3)nn1)C2 [Example 32]	< 0.1 µM	–	CC50 at 3 days ([3]; HepG2 CC50 (μM)): > 25 µM
O=C(N[C@H]1CC2=C(c3ccn(C(F)F)n3)[C@H](c3ccc(F)cc3Cl)N=C(c3nccs3)N2C1)N1C[C@H]2CC[C@@H](C1)[C@@H]2O [Example 6]	–	0.1 to 1 µM	–
O=S(=O)(C[C@H]1CC2=C(c3ccn(C(F)F)n3)[C@H](c3ccc(F)cc3Cl)N=C(c3nccs3)N2C1)N1CC2CC[C@@H](C1)[C@]2(O)c1ccccn1 [Example 37]	–	< 0.1 µM	–
O=S(=O)(N[C@H]1CC2=C(c3ccn(C(F)F)n3)[C@H](c3ccc(F)cc3Cl)N=C(c3nccs3)N2C1)N1C2CC[C@H]1C[C@](O)(c1cn(-c3ccccn3)nn1)C2 [Example 31]	< 0.1 µM	–	–
O=S(=O)(N[C@H]1CC2=C(c3ccn(C(F)F)n3)[C@H](c3ccc(F)cc3Cl)N=C(c3nccs3)N2C1)N1CC2CCC(C1)C2O (stereo partly shown) [Example 15]	–	< 0.1 µM	–
O=S(=O)(N[C@H]1CC2=C(c3ccn(C(F)F)n3)[C@H](c3ccc(F)cc3Cl)N=C(c3nccs3)N2C1)N1C2CCC1CC(O)(c1nccs1)C2 (stereo partly shown) [Example 23]	–	–	EC50 [1, 8]: < 0.1 µM; CC50 at 3 days ([3]; HepG2 CC50 (μM)): > 25 µM
